“Also recorded” adds a separate entry of the source. Residues, ends and D or L forms follow the SMILES beside them.
Tests used:
[1] = Absorption and systemic toxicity in animals, FITC labeling; type: in vivo
[2] = target: T1, potassium selective IKr current (hERG) (Homo sapiens, UniProt Q12809); assay: hERG test; type: cell-based; conditions: up to 1 ng/mL, stably transfected, normoxic conditions
T1 construct: expressed in transfected cells; host or cells: HEK 203 cells (so in the source)
Text: (§1) Two safety pharmacology studies for cardiotoxicity effects have been performed.

[3] = system: Celiac Disease subjects; assay: Phase IIa multiple dose POC study (CLIN1001-004), safety
Text: Study drug will be dispensed to subjects for fourteen (14) days of treatment. Study drug will be administered three times a day. […] Gluten or gluten placebo will be taken during each meal. Subjects will remain on their gluten-free diet throughout the duration of the trial.
All adverse events reported during the study will be listed, documenting course, severity, and outcome. Adverse events will be summarized by treatment, the MedDRA system organ class, and maximum severity. Laboratory parameters, vital signs, EKG assessments, and physical exam results will be summarized with descriptive statistics as appropriate.

[4] = system: Salmonella and E. coli strains; assay: Ames test (bacterial reverse mutation assay); conditions: up to 5000 μg per plate, with and without metabolic activation
[5] = system: human peripheral lymphocytes; assay: In vitro chromosome aberration study; conditions: up to 1200 μg, with and without metabolic activation
[6] = system: Beagle dogs; assay: Toxicity studies in Beagle dogs; type: in vivo, dog
Text: […] […] Any alterations in clinical pathology profiles were considered coincidental in nature. No alterations in absolute or relative organ weight data were detected.

[7] = system: healthy adults; assay: Single dose safety trial in healthy adults (CLIN1001-001); type: in vivo, human
Text: The single dose trial was a double-blind, placebo controlled, randomized trial of 24 healthy adults. […] All AEs reported in this study resolved without concomitant therapy. Headache was the most common AE experienced, reported one time each by 3 (13%) subjects.

[8] = Plasma drug levels, multi-dose trial; type: in vivo, human; conditions: 3 times a day for 10 days; llq 0.5 ng/ml
[9] = Stability of drug substance; type: physicochemical; conditions: room temperature
[10] = system: healthy adults; assay: Multi-dose safety trial in healthy adults (CLIN1001-003); type: in vivo, human; conditions: 24 healthy adults, 250 μg, 1, or 4 mg or placebo three times a day
Text: The multi-dose trial was a double-blind, placebo controlled, randomized trial of 24 healthy adults. […] Reported AEs were all mild and headache was the most common AE.

[11] = system: rats; assay: Toxicity studies in rats; type: in vivo, rat
Text: Toxicity studies have been performed in rats and Beagle dogs. […] Any alterations in clinical chemistry, hematology, coagulation, urinalysis and organ weight data were considered coincidental based on absence of dose-response relationships and absence of histopathological changes.

[12] = system: CD subjects
Text: One cohort of 24 subjects was planned, with a 2:1 randomization (drug:placebo) for once daily dosing on Days 1, 2 and 3. On Day 2, all subjects would receive a 2.5 gram oral gluten challenge in single blind fashion.
Safety measures included monitoring of AEs, standard clinical panels for chemistry, hematology, and urinalysis, pregnancy screening, EKG, vital signs and physical exam findings.
Spontaneous adverse events collected throughout the study were categorized according to WHO adverse reaction terminology and evaluated for duration, intensity, and possible association with the study drug per ICH guidelines. In addition, the following procedures were performed at various points throughout the course of the study: vital signs, complete physical exams, 12-lead electrocardiograms, full clinical (safety) laboratory analyses, serum pregnancy, urine drug screen and HIV and hepatitis serologies.
All adverse events reported during the study were listed, documenting course, severity, and outcome and summarized by treatment, giving the number of subjects who experienced an adverse event, the maximum severity, and body system. GI adeverse events for each arm were tabulated by subject count and compared via Fisher's exact test.
EKG results were classified as normal and abnormal. PR, RR, QRS, QT, and QTc intervals will be carefully examined and abnormalities tabulated.

[13] = system: rabbits; assay: Cardiovascular effects in unconscious female rabbits; type: in vivo, rabbit; conditions: intravenous, doses up to 1 mg/kg
Text: as §1

[14] = Phase IIa, preliminary observations
[15] = dogs, up to 9 mg/kg daily for 4 weeks
[16] = 24 healthy adults, 3, 12, or 36 mg or placebo, single dose
[17] = oral once daily for 28 days up to 1000 mg/kg
[18] = CD subjects, 12 mg once daily Days 1-3, N = 14
[19] = Related = Possible, probably, definite combined causalities, 12 mg, N = 14

T1 sequence (Q12809 whole entry): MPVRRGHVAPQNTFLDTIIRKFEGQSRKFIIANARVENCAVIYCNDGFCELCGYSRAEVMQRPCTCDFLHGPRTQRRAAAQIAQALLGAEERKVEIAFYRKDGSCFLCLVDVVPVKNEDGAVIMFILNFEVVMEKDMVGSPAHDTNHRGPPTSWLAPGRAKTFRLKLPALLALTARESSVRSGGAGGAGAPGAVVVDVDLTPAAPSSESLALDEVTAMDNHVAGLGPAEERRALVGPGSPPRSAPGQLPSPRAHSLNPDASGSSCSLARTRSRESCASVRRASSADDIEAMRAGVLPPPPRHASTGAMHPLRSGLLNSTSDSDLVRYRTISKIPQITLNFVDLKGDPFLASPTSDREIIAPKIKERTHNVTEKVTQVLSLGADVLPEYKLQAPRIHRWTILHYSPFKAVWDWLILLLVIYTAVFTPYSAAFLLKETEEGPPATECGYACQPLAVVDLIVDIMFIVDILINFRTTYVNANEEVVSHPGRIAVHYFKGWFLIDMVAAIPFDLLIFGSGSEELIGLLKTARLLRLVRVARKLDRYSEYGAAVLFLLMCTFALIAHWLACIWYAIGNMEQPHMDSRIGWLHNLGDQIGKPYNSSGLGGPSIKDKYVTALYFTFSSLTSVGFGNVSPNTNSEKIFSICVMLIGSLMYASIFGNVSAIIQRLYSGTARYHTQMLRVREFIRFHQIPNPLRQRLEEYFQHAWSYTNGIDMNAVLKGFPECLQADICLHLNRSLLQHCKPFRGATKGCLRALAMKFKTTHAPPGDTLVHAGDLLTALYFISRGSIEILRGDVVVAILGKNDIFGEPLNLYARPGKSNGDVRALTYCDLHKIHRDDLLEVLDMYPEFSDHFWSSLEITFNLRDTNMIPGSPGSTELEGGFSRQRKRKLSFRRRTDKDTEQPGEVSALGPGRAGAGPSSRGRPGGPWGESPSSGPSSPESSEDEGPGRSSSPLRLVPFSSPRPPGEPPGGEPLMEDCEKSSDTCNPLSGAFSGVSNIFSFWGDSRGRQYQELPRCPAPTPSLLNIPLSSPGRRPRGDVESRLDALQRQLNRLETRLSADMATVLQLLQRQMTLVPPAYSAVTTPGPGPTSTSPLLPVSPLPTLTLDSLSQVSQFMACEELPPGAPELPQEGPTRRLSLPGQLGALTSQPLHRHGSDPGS

CC(C)C[C@H](NC(=O)[C@@H](NC(=O)CNC(=O)CN)C(C)C)C(=O)N[C@H](C(=O)N[C@@H](CCC(N)=O)C(=O)N1CCC[C@H]1C(=O)NCC(=O)O)C(C)C [AT-1001] (H-GGVLVQPG-OH)
Passage into the submucosa or the vasculature ([1]; fluorescent FITC labeling): measurable amounts of the antagonist do not cross into the submucosa or the vasculature | Systemic toxicities ([1]; supra-therapeutic dosing in animals): devoid of significant systemic toxicities | Systemic absorption ([1]; supra-therapeutic dosing in animals, multi-particulate oral formulation): not systemically absorbed to any significant extent | Effect on IKr current [2]: None of the concentrations of AT-1001 caused statistically significant effects | Safety and tolerability of multiple oral doses ([3]; Phase IIa patient population): demonstrated | Serious adverse events ([3]; Phase IIa, 0.25-8 mg TID 14 days, preliminary observations): No Serious Adverse Events (SAEs) | Clinically significant trends related to safety [3, 14]: No Clinically Significant trends related to safety | Severity of adverse events [3, 14]: mild or moderate in severity | Mutagenic activity [4]: negative for mutagenic activity | solubility: > 1000 µg/mL | Structural or numerical chromosome aberrations [5]: negative for inducing structural or numerical chromosome aberrations | Signs of toxicity ([6]; Beagle dogs, single dose up to 5 mg/kg intravenously, observed 14 days): no signs of toxicity were observed | Clinical signs of toxicity ([6]; dogs, enteric-coated beads 20 mg/kg day 1, 40 mg/kg day 2): no clinical signs of toxicity were noted | Total protein and globulin levels ([6]; dogs, enteric-coated beads 20 mg/kg day 1, 40 mg/kg day 2, 24 hr after 40 mg/kg): slightly elevated | Treatment-related deaths and appearance ([6]; dogs, enteric-coated beads orally up to 9 mg/kg daily for 4 weeks): No treatment-related deaths occurred and all dogs appeared normal | Body weights, body weight gains, ophthalmic observations and EKG readings [6, 15]: unaffected by treatment | Gross necropsy or histopathology findings [6, 15]: None of the gross necropsy or histopathology findings were considered to be treatment-related | Serious adverse events [7, 16]: No Serious Adverse Events (SAEs) | Severity of adverse events [7, 16]: mild or moderate in severity | Clinically significant trends (clinical laboratory, vital sign, EKG, physical examination) ([7]; single dose trial): No clinically significant treatment-related trends; also recorded: No Clinically Significant trends related to safety | Plasma drug levels [8]: No measurable plasma drug levels | Stability [9]: up to 1 year | Serious adverse events [10]: No Serious Adverse Events (SAEs) | Severity of adverse events [10]: all mild in severity | Body weight gain in recovery group ([11]; 28 day study, males at week 8 (recovery week 4)): body weight gain was lower in the dose males at week 8 | Treatment-related findings, 14 day repeat-dose study ([11]; oral gavage once daily for 14 days up to 1000 mg/kg): no treatment-related clinical observations, clinical pathology changes, body weight or weight gain changes, organ weight changes, or gross or microscopic tissue changes | Food consumption, body weights/gains, ophthalmic observations [11, 17]: unaffected by treatment | Gross necropsy or histopathology findings [11, 17]: No gross necropsy or histopathology findings were considered to be treatment-related | Treatment-related deaths [11, 17]: No treatment-related deaths occurred | Clinical observations, clinical chemistry, gross postmortem observations ([11]; single dose intravenously up to 5 mg/kg): no clinical observations, clinical chemistry changes, or gross postmortem observations | Overall safety and tolerability ([12]; 12 mg in CD subjects): generally safe, well tolerated | (%) of serious AEs ([12]; 12 mg, N = 14): (0) % | Number of serious AEs ([12]; 12 mg, N = 14): 0 | Gastrointestinal Disorders, Subject Count (%) ([12]; 12 mg, N = 14, p 0.018 vs placebo): 6 (43%) | Number of subjects reporting an AE ([12]; CD subjects, 12 mg once daily Days 1-3, 2.5 g gluten Day 2, N = 14): 10 | (%) of subjects discontinued study due to AE [12, 18]: (0) % | (%) of subjects reporting an AE [12, 18]: (71) % | Number of subjects discontinued study due to AE [12, 18]: 0 | Total number of AEs reported [12, 18]: 32 | Abdominal Discomfort, Subject Count (%) ([12]; CD-related, 12 mg, N = 14): 0 (0%) | Constipation, Subject Count (%) ([12]; CD-related, 12 mg, N = 14): 0 (0%) | Flatulence, Subject Count (%) ([12]; CD-related, 12 mg, N = 14): 2 (14%) | Vomiting, Subject Count (%) ([12]; CD-related, 12 mg, N = 14): 3 (21%) | Diarrhoea, Subject Count (%) ([12]; CD-related, 12 mg, N = 14, p 0.017 vs placebo): 2 (14%) | Abnormalities in safety laboratory tests, vital signs, ECG, physical examinations ([12]; Phase Ib study): no clinically significant abnormalities | Deaths, SAEs, significant AEs, withdrawals due to AEs ([12]; Phase Ib study, 21 CD subjects, 12 mg or placebo for three days): no serious adverse events (SAEs); also recorded: no deaths, SAEs, significant AEs, or withdrawals due to AEs | (%) of related AEs [12, 19]: (3) % | Number of related AEs [12, 19]: 1 | Dyspepsia, Subject Count (%) ([12]; not CD-related, 12 mg, N = 14): 3 (21%) | Eructation, Subject Count (%) ([12]; not CD-related, 12 mg, N = 14): 1 (7%) | Gastrooesophageal Reflux, Subject Count (%) ([12]; not CD-related, 12 mg, N = 14): 1 (7%) | Nausea, Subject Count (%) ([12]; not CD-related, 12 mg, N = 14): 4 (29%) | Stomach Discomfort, Subject Count (%) ([12]; not CD-related, 12 mg, N = 14): 2 (14%) | Effects on the EKG [13]: no notable effects

From patent US9279807B2, “Materials and methods for the treatment of celiac disease” (ALBA THERAPEUTICS CORPORATION, priority 2006, dated 2016)
